The values below come from US20200262813A1, “1,5,7-TRISUBSTITUTED ISOQUINOLINE DERIVATIVES, PREPARATION THEREOF, AND USE THEREOF IN MEDICINES” (SHANGHAI HAIYAN PHARMACEUTICAL TECHNOLOGY CO., LTD., priority 2016, published 2020).

In this assay the target is Recombinant PRC2 (EZH2-Y641F) (Homo sapiens, UniProt Q15910, Y641F). The experiment in a line: In vitro methyltransferase activity test (LANCE Ultra).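 Note: compounds tested as an 8-point threefold dilution series, fluorescence read after 1 h detection step at room temperature, IC50 derived from a four-parameter curve fit.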 The conditions noted are these: EZH2 Y641F IC50, Recombinant PRC2 (EZH2-Y641F), LANCE Ultra detection, 3 hours reaction.
Recombinant PRC2 (EZH2-Y641F), sequence (Q15910 whole entry Y641F): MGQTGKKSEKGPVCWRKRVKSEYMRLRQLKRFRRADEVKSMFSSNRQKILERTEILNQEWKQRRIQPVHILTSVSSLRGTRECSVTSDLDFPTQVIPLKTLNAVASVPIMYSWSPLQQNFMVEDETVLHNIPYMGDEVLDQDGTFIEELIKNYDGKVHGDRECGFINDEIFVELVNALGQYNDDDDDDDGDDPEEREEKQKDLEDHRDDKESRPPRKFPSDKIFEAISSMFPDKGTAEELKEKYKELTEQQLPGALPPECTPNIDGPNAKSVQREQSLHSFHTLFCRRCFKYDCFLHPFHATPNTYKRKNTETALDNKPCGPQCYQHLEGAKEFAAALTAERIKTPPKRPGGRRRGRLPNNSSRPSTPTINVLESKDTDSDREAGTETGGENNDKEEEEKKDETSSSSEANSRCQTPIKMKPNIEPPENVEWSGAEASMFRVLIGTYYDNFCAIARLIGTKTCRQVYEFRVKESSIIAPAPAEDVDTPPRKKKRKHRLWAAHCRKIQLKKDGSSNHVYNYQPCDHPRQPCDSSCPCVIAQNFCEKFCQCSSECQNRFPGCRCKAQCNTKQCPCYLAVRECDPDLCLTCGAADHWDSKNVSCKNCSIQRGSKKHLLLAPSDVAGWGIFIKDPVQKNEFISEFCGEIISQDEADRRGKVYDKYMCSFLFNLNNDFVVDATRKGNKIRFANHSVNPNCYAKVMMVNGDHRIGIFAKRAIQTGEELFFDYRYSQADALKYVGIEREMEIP
Recombinant PRC2 (EZH2-Y641F), sequence (O75530 whole entry partner): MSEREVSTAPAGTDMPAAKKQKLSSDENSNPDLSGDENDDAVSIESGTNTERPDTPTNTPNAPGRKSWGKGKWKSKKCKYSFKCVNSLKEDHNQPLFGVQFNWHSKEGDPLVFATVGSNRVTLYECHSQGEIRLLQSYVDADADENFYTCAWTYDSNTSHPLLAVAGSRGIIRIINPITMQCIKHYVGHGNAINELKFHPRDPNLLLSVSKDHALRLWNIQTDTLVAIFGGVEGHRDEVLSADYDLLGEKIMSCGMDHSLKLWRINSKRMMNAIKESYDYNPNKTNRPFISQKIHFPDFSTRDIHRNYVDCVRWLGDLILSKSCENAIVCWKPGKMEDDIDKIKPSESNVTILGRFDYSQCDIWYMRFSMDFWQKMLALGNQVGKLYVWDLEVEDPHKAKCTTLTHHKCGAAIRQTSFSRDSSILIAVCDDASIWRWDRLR
Recombinant PRC2 (EZH2-Y641F), sequence (Q15022 whole entry partner): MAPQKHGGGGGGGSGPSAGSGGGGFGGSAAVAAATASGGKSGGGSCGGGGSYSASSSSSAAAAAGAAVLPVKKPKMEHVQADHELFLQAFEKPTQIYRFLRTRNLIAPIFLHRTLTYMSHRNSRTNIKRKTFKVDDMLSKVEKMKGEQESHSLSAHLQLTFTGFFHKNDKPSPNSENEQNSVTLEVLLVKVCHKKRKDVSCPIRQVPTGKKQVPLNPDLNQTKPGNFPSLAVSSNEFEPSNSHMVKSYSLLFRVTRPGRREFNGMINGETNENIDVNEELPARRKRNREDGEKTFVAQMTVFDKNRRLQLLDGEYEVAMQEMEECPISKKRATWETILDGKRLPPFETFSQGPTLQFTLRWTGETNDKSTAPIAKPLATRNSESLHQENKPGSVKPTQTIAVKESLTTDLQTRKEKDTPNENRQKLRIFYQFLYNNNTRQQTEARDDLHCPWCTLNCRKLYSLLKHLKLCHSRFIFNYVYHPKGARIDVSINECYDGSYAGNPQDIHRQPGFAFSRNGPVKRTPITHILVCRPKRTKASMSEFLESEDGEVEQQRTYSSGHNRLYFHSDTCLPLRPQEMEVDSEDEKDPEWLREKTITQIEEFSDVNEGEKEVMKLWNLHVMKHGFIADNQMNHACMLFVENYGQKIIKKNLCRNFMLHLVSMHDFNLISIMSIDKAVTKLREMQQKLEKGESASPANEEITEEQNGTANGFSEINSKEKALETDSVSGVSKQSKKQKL
Recombinant PRC2 (EZH2-Y641F), sequence (Q09028 whole entry partner): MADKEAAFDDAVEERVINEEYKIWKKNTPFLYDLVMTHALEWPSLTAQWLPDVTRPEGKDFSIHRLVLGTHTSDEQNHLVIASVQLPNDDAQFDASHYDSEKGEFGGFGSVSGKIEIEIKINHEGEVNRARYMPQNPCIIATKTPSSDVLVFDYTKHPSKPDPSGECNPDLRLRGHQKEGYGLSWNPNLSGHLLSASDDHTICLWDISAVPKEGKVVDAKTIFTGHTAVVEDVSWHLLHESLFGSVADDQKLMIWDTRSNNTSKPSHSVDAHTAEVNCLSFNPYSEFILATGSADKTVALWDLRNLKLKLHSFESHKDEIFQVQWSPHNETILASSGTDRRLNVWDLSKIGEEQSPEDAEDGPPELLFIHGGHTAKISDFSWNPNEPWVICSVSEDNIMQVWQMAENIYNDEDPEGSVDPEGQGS
Recombinant PRC2 (EZH2-Y641F), sequence (Q6ZN18 whole entry partner): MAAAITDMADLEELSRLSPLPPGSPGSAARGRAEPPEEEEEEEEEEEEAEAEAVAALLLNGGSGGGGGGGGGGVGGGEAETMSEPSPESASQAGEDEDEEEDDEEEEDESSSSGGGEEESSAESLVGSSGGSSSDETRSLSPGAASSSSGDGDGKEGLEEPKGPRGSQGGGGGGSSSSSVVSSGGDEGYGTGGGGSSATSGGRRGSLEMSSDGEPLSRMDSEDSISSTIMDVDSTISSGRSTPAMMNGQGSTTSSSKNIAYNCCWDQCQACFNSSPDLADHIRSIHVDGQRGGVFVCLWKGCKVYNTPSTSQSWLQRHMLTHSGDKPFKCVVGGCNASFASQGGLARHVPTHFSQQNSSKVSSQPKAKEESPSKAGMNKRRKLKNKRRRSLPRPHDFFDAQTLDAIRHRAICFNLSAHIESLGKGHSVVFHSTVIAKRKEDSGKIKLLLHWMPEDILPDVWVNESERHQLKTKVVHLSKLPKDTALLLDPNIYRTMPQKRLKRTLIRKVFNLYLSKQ

Description: In Vitro Methyltransferase Activity Test
Recombinant PRC2 (EZH2-Y641F) was purchased from Active motif, S-adenosyl-methionine (SAM) and Poly-L-lysine (PLL) were purchased from Sigma-Aldrich, H3(1-50)K27mel polypeptide was purchased from Cisbio. LANCEUltra system (Perkinelmer) was used for detection. In the enzyme activity test, a compound to be tested was 1:3 diluted for 8 gradient points, added into a reaction plate, and then added 100 ng recombinant enzyme. And then a buffer [20 mM Tris pH8.5, 2 mM MgCl2, 0.01% Tween-20, 1 mM TCEP] containing 2.5 M SAM/250 nM H3(1-50)K27mel premixture was added to conduct an enzyme reaction at room tempreture. After reacted for 3 hours, a dection solution containing premixed PLL, detection antibody and Ulight was added, reacted for 1 h at RT, then fluorescence was read on Tecan infinite pro. IC50s were calculated by four-factor model fitting in a XLfit software.

Take `CCN(c1cc(-c2ccc(CN3CCC[C@H](O)C3)cc2)cc2c(NCc3c(C)cc(C)[nH]c3=O)nccc12)C1CCOCC1` [Compound Z-31]: the half-maximal inhibitory concentration (IC50) came to 328 nM.

Consider `CCN(c1cc(Cl)cc2c(NCc3c(C)cc(C)[nH]c3=O)nccc12)C1CCS(=O)(=O)CC1` [Compound Z-139], for which the IC50 came to 418 nM.

`CCN(c1cc(Cl)cc2c(NCc3c(C)cc(C)[nH]c3=O)nccc12)C1CCC(N(C)CCOC)CC1` (stereo not drawn) [Compound Z-145]: the 50% inhibitory concentration (IC50) was determined as 203 nM.

For `CCN(c1cc(-c2ccc(CN3CCNCC3)nc2)cc2c(NCc3c(C)cc(C)[nH]c3=O)nccc12)C1CCOCC1` [Compound Z-152], the IC50 came out at 96 nM.

Consider `CCN(c1cc(C(=O)NC)cc2c(NCc3c(C)cc(C)[nH]c3=O)nccc12)[C@H]1CC[C@H](N(C)C)CC1` [Compound Z-166], for which the IC50 is 15 nM.

Regarding `CCN(c1cc(Cl)cc2c(NCc3c(C)cc(C)[nH]c3=O)nccc12)C1CCC(N2CCC2)CC1` (stereo not drawn) [Compound Z-205], the IC50 was found to be 35 nM.

For the compound `CCN(c1cc(C(C)C)cc2c(NCc3c(C)cc(C)[nH]c3=O)nccc12)C1CCNCC1` [Compound Z-235, 3-((5-(ethyl (piperidin-4-yl)amino)-7-isopropylisoquinolin-1-ylamino)methyl)-4,6-dimethyl-2(1H)-one], the IC50 is 129 nM.

As for `CCN(c1cc(-c2ccc(CN(C)C)nc2)cc2c(NCc3c(C)cc(C)[nH]c3=O)nccc12)C1CCC(N(C)C)CC1` (stereo not drawn) [Compound Z-128], the IC50 was 225 nM.

Take `CCN(c1cc(Cl)cc2c(NCc3c(C)cc(C)[nH]c3=O)nccc12)C1CCN(S(C)(=O)=O)CC1` [Compound Z-229]: the half-inhibitory concentration (IC50) came to 429 nM.

Turning to `CCN(c1cc(-c2ccc(CN3CCN(C)CC3)nc2)cc2c(NCc3c(C)cc(C)[nH]c3=O)nccc12)C1CCN(C2CC2)CC1` [Compound Z-84], the half-inhibitory concentration (IC50) was 83 nM.

In the case of `CCN(c1cc(-c2ccc(N3CCN(C)CC3)c(F)c2)cc2c(NCc3c(C)cc(C)[nH]c3=O)nccc12)C1CCC(N(C)C)CC1` (stereo not drawn) [Compound Z-80], the IC50 stood at 26 nM.

With `CCN(c1cc(-c2ccc(C(=O)N3CCOCC3)nc2)cc2c(NCc3c(C)cc(C)[nH]c3=O)nccc12)C1CCN(C(C)C)CC1` [Compound Z-123], the half-inhibitory concentration (IC50) was determined as 75 nM.

`CCN(c1cc(-c2ccc(CN3CCOCC3)cc2)cc2c(NCc3c(C)cc(C)[nH]c3=O)nccc12)C1CCN(C(C)=O)CC1` [Compound Z-60]: the IC50 was 321 nM.

Take `CCN(c1cc(C(F)(F)F)cc2c(NCc3c(C)cc(C)[nH]c3=O)nccc12)C1CCC(N(C)C)CC1` (stereo not drawn) [Compound Z-134]: the 50% inhibitory concentration (IC50) was 117 nM.

Regarding `CCN(c1cc(Cl)cc2c(NCc3c(C)cc(C)[nH]c3=O)nccc12)C1CCOCC1` [Compound Z-4, 3-((7-chloro-5-(ethyl (tetrahydro-2H-pyran-4-yl)amino)isoquinolin-1-ylamino)methyl)-4,6-dimethyl-2(1H)-one], the IC50 turned out to be 295 nM.

As for `CCN(c1cc(-c2ccc(N3CCN(C)CC3)nc2)cc2c(NCc3c(C)cc(C)[nH]c3=O)nccc12)C1CCN(CCF)CC1` [Compound Z-76], the IC50 stood at 60 nM.

For the compound `CCN(c1cc(C(F)(F)F)cc2c(NCc3c(C)cc(C)[nH]c3=O)nccc12)C1CCNCC1` [Compound Z-13, 3-((5-(ethyl (piperidin-4-yl)amino)-7-(trifluoromethyl)isoquinolin-1-ylamino)methyl)-4,6-dimethylpyridine-2(1H)-one], the 50% inhibitory concentration (IC50) turned out to be 92 nM.

For the compound `CCN(c1cc(-c2cncc(C(F)(F)F)c2)cc2c(NCc3c(C)cc(C)[nH]c3=O)nccc12)[C@H]1CC[C@H](N(C)C)CC1` [Compound Z-77], the IC50 was 177 nM.

For `CCN(c1cc(-c2ccc(N3CCOCC3)nc2)cc2c(NCc3c(C)cc(C)[nH]c3=O)nccc12)C1CCOCC1` [Compound Z-28], the IC50 amounted to 341 nM.

As to `CCN(c1cc(-c2ccc(N3CCN(C)CC3)nc2)cc2c(NCc3c(C)cc(C)[nH]c3=O)ncc(F)c12)C1CCC(N(C)C)CC1` (stereo not drawn) [Compound Z-223, 3-((5-((4-(dimethylamino)cyclohexyl)(ethyl)amino)-4-fluoro-7-(6-(4-methylpiperazin-1-yl)pyridin-3-yl)isoquinolin-1-ylamino)methyl)-4,6-dimethyl-2(1H)-one], the IC50 was 45 nM.

With `CCN(c1cc(C#CCN2CCOCC2)cc2c(NCc3c(C)cc(C)[nH]c3=O)nccc12)C1CCOCC1` [Compound Z-178], the IC50 was found to be 348 nM.

As to `CCN(c1cc(Oc2ccccc2)cc2c(NCc3c(C)cc(C)[nH]c3=O)nccc12)[C@H]1CC[C@H](N(C)C)CC1` [Compound Z-190], the IC50 was 472 nM.

For `CCN(c1cc(-c2ccc(C(=O)Nc3ccccn3)cc2)cc2c(NCc3c(C)cc(C)[nH]c3=O)nccc12)C1CCC(N(C)C)CC1` (stereo not drawn) [Compound Z-110], the IC50 came out at 67 nM.

On to `C=C(C)c1cc(N(CC)C2CCC(N(C)C)CC2)c2ccnc(NCc3c(C)cc(C)[nH]c3=O)c2c1` (stereo not drawn) [Compound Z-109], for which the half-inhibitory concentration (IC50) came to 182 nM.

As to `CCN(CC)Cc1ccc(-c2cc(N(CC)C3CCOCC3)c3ccnc(NCc4c(C)cc(C)[nH]c4=O)c3c2)cc1` [Compound Z-27], the IC50 was determined as 96 nM.

Consider `CCN(c1cc(-c2cn[nH]c2)cc2c(NCc3c(C)cc(C)[nH]c3=O)nccc12)C1CCC(N(C)C)CC1` (stereo not drawn) [Compound Z-155], for which the half-inhibitory concentration (IC50) was 159 nM.

As for `CCN(c1cc(-c2cnc(N3CCNCC3)nc2)cc2c(NCc3c(C)cc(C)[nH]c3=O)nccc12)[C@H]1CC[C@H](N(C)C)CC1` [Compound Z-160], the half-inhibitory concentration (IC50) was 6 nM.

In the case of `CCN(c1cc(-c2ccc(CN3CCOCC3)nc2)cc2c(NCc3c(C)cc(C)[nH]c3=O)nccc12)C1CCN(C(C)C)CC1` [Compound Z-69], the IC50 was determined as 100 nM.

For `CCN(c1cc(-c2ccc(N3CCNCC3)nc2)cc2c(NCc3c(C)cc(C)[nH]c3=O)nccc12)C1CCC(N(C)C)CC1` (stereo not drawn) [Compound Z-157], the concentration for half-maximal inhibition (IC50) amounted to 16 nM.

For `CCN(c1cc(-c2cnc(N3CCN(C)CC3)nc2)cc2c(NCc3c(C)cc(C)[nH]c3=O)nccc12)C1CCN(C(C)C)CC1` [Compound Z-67], the 50% inhibitory concentration (IC50) was found to be 70 nM.

Regarding `CCN(c1cc(-c2ccc(N3CCOCC3)nc2)cc2c(NCc3c(C)cc(C)[nH]c3=O)nccc12)C1CCC(NC(C)=O)CC1` (stereo not drawn) [Compound Z-48], the half-inhibitory concentration (IC50) was determined as 303 nM.

As for `CCN(c1cc(-c2ccc(CN3CCOCC3)cc2)cc2c(NCc3c(C)cc(C)[nH]c3=O)nccc12)C1CCOCC1` [Compound Z-1], the concentration for half-maximal inhibition (IC50) worked out at 422 nM.

For `CCN(c1cc(-c2ccc(NC3CCOCC3)cc2)cc2c(NCc3c(C)cc(C)[nH]c3=O)nccc12)C1CCOCC1` [Compound Z-32], the concentration for half-maximal inhibition (IC50) was determined as 488 nM.

Regarding `CCN(c1cc(-c2ccc(N3CCN(C)CC3)nc2)cc2c(NCc3c(OC)cc(C)[nH]c3=O)nccc12)C1CCN(C(C)C)CC1` [Compound Z-191], the IC50 was 206 nM.

In the case of `CCN(c1cc(C2CCN(C)CC2)cc2c(NCc3c(C)cc(C)[nH]c3=O)nccc12)C1CCC(O)CC1` (stereo not drawn) [Compound Z-212], the IC50 came to 185 nM.

Regarding `CCN(c1cc(-c2cn[nH]c2)cc2c(NCc3c(C)cc(C)[nH]c3=O)nccc12)C1CCOCC1` [Compound Z-14], the IC50 was 426 nM.

Consider `CCN(c1cc(-c2ccc(N3CCNCC3)nc2)cc2c(NCc3c(C)cc(C)[nH]c3=O)nccc12)C1CCC(NC(C)=O)CC1` (stereo not drawn) [Compound Z-156], for which the 50% inhibitory concentration (IC50) came out at 37 nM.

Take `CCN(c1cc(-c2ccc(N3CCN(C)CC3)nc2)cc2c(NCc3c(C)n(C)[nH]c3=O)nccc12)C1CCC(N(C)C)CC1` (stereo not drawn) [Compound Z-216, 4-((5-((4-(dimethylamino)cyclohexyl)(ethyl)amino)-7-(6-(4-methylpiperazin-1-yl)pyridine-3-yl)isoquinolin-1-ylamino)methyl)-1,5-dimethyl-H-pyrazol-3-(2H)-one]: the IC50 was found to be 365 nM.

Regarding `CCN(c1cc(-c2ccc(CN3CCCCC3)cc2)cc2c(NCc3c(C)cc(C)[nH]c3=O)nccc12)C1CCOCC1` [Compound Z-23], the IC50 is 212 nM.

Turning to `CCN(c1cc(C(=O)N(C)C)cc2c(NCc3c(C)cc(C)[nH]c3=O)nccc12)[C@H]1CC[C@H](N(C)C)CC1` [Compound Z-170], the IC50 was determined as 374 nM.

Regarding `CCN(c1cc(Nc2cccnc2)cc2c(NCc3c(C)cc(C)[nH]c3=O)nccc12)[C@H]1CC[C@H](N(C)C)CC1` [Compound Z-182], the IC50 came to 504 nM.

Consider `CCN(c1cc(C(=O)NC)cc2c(NCc3c(C)cc(C)[nH]c3=O)nccc12)C1CCOCC1` [Compound Z-161], for which the half-maximal inhibitory concentration (IC50) was determined as 331 nM.

For the compound `CCN(c1cc(C(N)=O)cc2c(NCc3c(C)cc(C)[nH]c3=O)nccc12)[C@H]1CC[C@H](N(C)C)CC1` [Compound Z-227, 1-((4,6-dimethyl-2-oxo-1,2-dihydropyridin-3-yl)methylamino)-5-(((1R,4R)-4-(dimethylamino)cyclohexyl) (ethyl)amino) isoquinoline-7-carboxamide], the IC50 stood at 64 nM.

As to `CCN(c1cc(-c2ccc(N3CCOCC3)nc2)cc2c(NCc3c(C)cc(C)[nH]c3=O)nccc12)C1CCN(C2CC2)CC1` [Compound Z-87], the IC50 worked out at 474 nM.

Turning to `CCN(c1cc(Br)cc2c(NCc3c(C)cc(C)[nH]c3=O)nccc12)C1CCOCC1` [Compound Z-3, 3-((7-bromo-5-(ethyl (tetrahydro-2H-pyran-4-yl)amino)isoquinolin-1-ylamino)methyl)-4,6-dimethyl-2(1H)-one], the IC50 came out at 186 nM.

Regarding `CCN(c1cc(-c2ccc(CN(C)C)cc2)cc2c(NCc3c(C)cc(C)[nH]c3=O)nccc12)C1CCOCC1` [Compound Z-30], the IC50 was found to be 298 nM.

Consider `CCN(c1cc(-c2ccc(C(=O)N3CCN(C)CC3)nc2)cc2c(NCc3c(C)cc(C)[nH]c3=O)nccc12)C1CCN(C(C)C)CC1` [Compound Z-124], for which the IC50 is 51 nM.

Turning to `CCN(c1cc(Cl)cc2c(NCc3c(C)cc(C)[nH]c3=O)nccc12)C1CCN(C(=O)CC#N)CC1` [Compound Z-175], the IC50 was determined as 182 nM.

In the case of `CCc1cc(C)[nH]c(=O)c1CNc1nccc2c(N(CC)C3CCC(N(C)C)CC3)cc(Cl)cc12` (stereo not drawn) [Compound Z-204], the IC50 stood at 24 nM.

For `CCN(c1cc(-c2ccc(N3CCOCC3)nc2)cc2c(NCc3c(C)cc(C)[nH]c3=O)nccc12)C1CCN(C(C)=O)CC1` [Compound Z-59], the IC50 was found to be 277 nM.

Turning to `CCN(c1cc(-c2ccc(CN3CCOCC3)cc2)cc2c(NCc3c(C)cc(C)[nH]c3=O)nccc12)C1CCC(N(C)C)CC1` (stereo not drawn) [Compound Z-41], the 50% inhibitory concentration (IC50) stood at 38 nM.
